From patent US11766434B2, “Pyrimidinone derivatives as CDC7 inhibitors” (Cancer Research Technology Limited, priority 2016, dated 2023)

Key:
[1] = target: T1, Cdc7 (Homo sapiens, UniProt O00311); test: Cdc7 cell pharmacodynamics assay Method 2: pS40MCM2 levels in HCT116 cells; format: cell-based; design: endogenous in cells; details: 18 hours treatment, read-out: Biomarker Method 2 (pEC50) (converted)
From the text: This protocol describes a method to investigate the inhibition of Cdc7 activity by measuring pS40MCM2 levels in cells, after treatment with compounds.
• HCT116 cells (ATCC, #CCL-247) • McCoys 5A with L-glutamine (Cellgro, #10-050-CV) • 10% FCS (Cellgro, #35-010-CV) • D-PBS without CaCl2 and MgCl2 (Cellgro, #21-031-CV) • Trypsin/EDTA (Cellgro, #25-052-CL) • BSA (Calbiochem, 126593) • Cell Extraction Buffer (Invitrogen FNN0011) • Protease inhibitor cocktail (Sigma P-2714) • PMSF 0.3M stock in DMSO (Sigma P7626) • Antibody—rabbit pMCM2 Ser40 (Abeam, AB133243) • Antibody—goat MCM2 (Bethyl #A300-122A) • Antibody—goat Anti Rabbit IgG HRP (Thermo, 31462) • SuperSignal ELISA Pico Chemiluminescent Substrate (Perbio Science UK Ltd 37069) • 10×PBS (Growcells, MRGF-6236) • Triton X100 (Sigma, P-T8787) • DMSO (Fisher, D128-1) • 2-Propanol (J. T. Baker, 9095-03) Method • Seed 1×10^6 HCT116 cells into each of two 175 cm^2 flask containing 30 mL Cell Growth Media and incubate at 37° C., 5% CO2 for 3 days. • Harvest the cells from one T175 cm^2 flask and count. • Dilute with Cell Growth Media to a cell density of 2×10^5. Dispense 100 μL to each well (20,000 HCT116 cells/well) of TC treated 96-well plate(s). • Allow cells to settle overnight in incubator set at 37° C. and 5% CO2. • Cell treatment: Transfer 0.25 μL/well from the compound plate to the wells of the cell plate(s). This is a 1:400 dilution of compound in the assay. • Once all cells are treated place the cells back to the incubator and incubate for 18 hours. • Dilute the capture antibody (total MCM2 #A300-122A) 1 in 250 in the required volume of PBS (5 mL per assay plate, plus 5 mL for dead volume) and add 50 μL to each well of a Hybond plate except wells A12 & B12. Seal the plate and incubate at room temperature fora minimum of 2 hours. • Defrost aliquot of Invitrogen Cell Extraction Buffer (FNN0011) on ice and supplement with appropriate volume of both Sigma protease inhibitor cocktail (P-2714) and PMSF (final cone 1 mM from a 1 M stock in DMSO). • After the 6 hour or 18 hour cell treatment time, tap out the media from the assay plates and place them in the −70° C. freezer for at least 5 minutes. • Flick out the remaining liquid in the previously prepared capture Ab plate(s) and add 200 μL 2% BSA per well. Incubate for 1 hour at room temperature. • Remove plates from freezer and add 20 μL of ice cold complete lysis buffer. Incubate cells for 30 minutes at 4° C. • Add 30 μL per well 2% BSA • At the end of the 1 hour incubation, wash the Capture/ELISA plate(s) with Wash Buffer on the BioTek plate washer. • Transfer 40 μL per well of the lysis plate(s) to the same wells in the Capture/ELISA plate. Incubate cells overnight at 4° C. • At the end of the overnight incubation, wash the ELISA plate(s) with Wash Buffer on BioTek plate washer. • Prepare Detection Antibody Buffer and dispense 50 μL to all wells of ELISA plate(s) except wells G1 & H1. Cover plate and incubate at room temperature for 2 hours with gentle shaking. • At the end of the 2 hour incubation, wash the ELISA plate(s) with Wash Buffer on the BioTek plate washer. • Prepare the Conjugated Antibody Buffer and dispense 50 μL to all wells of ELISA plate(s). • Cover the plate and incubate at room temperature for 1 hour with gentle shaking. • At the end of the 1 hour incubation, wash the ELISA plate(s) with Wash Buffer on the BioTek plate washer. • Prepare Substrate Buffer and dispense 50 μL to all wells of ELISA plate(s). • Incubate for a minimum of 10 minutes and read plates on the EnVision 2100 Multilabel Reader (Mirror: Luminescence (404) & Luminescence 700 (212); Measurement Height: 6.5 mm; Measurement Time: 0.2 s). Method 3

[2] = target: Cdc7/ASK (Homo sapiens, UniProt O00311); test: Cdc7 biochemical assay Method 1: 384 well ELISA, MCM2 whole protein substrate, Phospho MCM2 (S53) antibody; design: purchased; details: ATP 2 μM, 90 minutes, read-out: Biochemical method 1 (pIC50) (converted)
Chain of Cdc7/ASK (O00311 whole entry): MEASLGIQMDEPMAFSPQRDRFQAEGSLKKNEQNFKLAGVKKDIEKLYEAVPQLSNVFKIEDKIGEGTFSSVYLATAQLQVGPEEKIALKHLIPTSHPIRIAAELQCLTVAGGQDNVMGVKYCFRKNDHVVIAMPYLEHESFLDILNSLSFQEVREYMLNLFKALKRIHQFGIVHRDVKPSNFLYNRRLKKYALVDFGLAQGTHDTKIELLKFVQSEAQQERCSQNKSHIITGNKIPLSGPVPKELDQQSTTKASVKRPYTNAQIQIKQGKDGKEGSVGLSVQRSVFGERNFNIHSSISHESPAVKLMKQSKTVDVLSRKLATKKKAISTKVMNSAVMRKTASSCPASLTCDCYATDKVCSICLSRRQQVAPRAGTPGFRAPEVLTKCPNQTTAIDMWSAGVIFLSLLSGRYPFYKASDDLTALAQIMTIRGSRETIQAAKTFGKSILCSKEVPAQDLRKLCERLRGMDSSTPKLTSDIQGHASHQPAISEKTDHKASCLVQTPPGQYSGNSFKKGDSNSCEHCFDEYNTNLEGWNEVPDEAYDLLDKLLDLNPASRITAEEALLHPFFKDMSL
Chain of Cdc7/ASK (Q9UBU7 whole entry partner): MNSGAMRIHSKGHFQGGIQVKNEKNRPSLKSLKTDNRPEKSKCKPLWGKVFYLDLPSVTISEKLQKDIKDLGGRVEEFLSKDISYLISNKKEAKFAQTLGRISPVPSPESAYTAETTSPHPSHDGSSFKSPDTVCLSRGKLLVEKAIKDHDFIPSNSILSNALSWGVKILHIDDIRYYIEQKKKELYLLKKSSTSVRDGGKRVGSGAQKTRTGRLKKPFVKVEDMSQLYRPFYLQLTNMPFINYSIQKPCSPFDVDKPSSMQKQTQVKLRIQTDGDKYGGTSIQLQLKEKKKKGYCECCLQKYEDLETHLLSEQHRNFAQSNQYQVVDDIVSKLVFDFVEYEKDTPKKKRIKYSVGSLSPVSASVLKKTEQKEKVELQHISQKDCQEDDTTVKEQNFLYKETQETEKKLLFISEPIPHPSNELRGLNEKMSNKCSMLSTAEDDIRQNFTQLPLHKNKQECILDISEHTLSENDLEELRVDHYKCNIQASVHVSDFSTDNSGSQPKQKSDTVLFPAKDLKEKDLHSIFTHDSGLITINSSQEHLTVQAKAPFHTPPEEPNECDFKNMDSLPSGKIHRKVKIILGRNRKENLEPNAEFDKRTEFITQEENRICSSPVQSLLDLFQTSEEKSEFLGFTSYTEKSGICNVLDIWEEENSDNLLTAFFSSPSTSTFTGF
Experimental: This protocol describes a method for assaying Cdc7/ASK for activity. The assay is a 384 well ELISA assay, utilising a whole protein substrate (MCM2) and an antibody against Phospho MCM2 (S53). This site is thought to be specific to Cdc7/ASK phosphorylation and the assay has been validated using knockout mutants.
• TBS: 25 mM Tris pH 7.2, 150 mM NaCl. (Dilute 10× stock by 1:10). • Wash Buffer: TBS+0.05% Tween 20. (Add 100 mL 1 M Tris pH 7.2, 120 mL 5 M NaCl and 2 mL 100% Tween 20 per 4 L). • Kinase Reaction Buffer: 50 mM Tris-HCl pH 8.5, 10 mM MgCl2, 1 mM DTT. (Dilute 10× stock by 1:10 and add 100 μL 1M DTT per 100 mL prior to assay). • Diethanolamine Buffer: 1 M diethanolamine pH 9.8, 0.5 mM MgCl2. • Stop Solution: 1 M NaOH. • MCM2 was expressed and purified in-house and used in the assay at a final assay concentration of 436 ng/well. • Cdc7/ASK is purchased from commercial suppliers and used in the assay at a final assay concentration of 37.97 ng/well or 20.63 nM. • ATP used as a final assay concentration of 2 μM. • Primary Antibody: Rabbit anti-Phospho MCM2 (S53 Antibody (BL3353)), is purchased from commercial suppliers at 0.2 mg/mL and used at a final assay concentration by diluting 1:800 in TBS. • Secondary Antibody: Anti-Rabbit/AP Antibody is supplied is purchased from commercial suppliers at 1 mg/mL and used at a final assay concentration by diluting 1:2000 in TBS. • Development Reagent: Dissolve one 20 mg PNPP tablet (Sigma, product N2765, 20 mg per tablet) per 20 mL diethanolamine Buffer (or one 5 mg PNPP tablet per 5 mL diethanolamine buffer). Cover in foil and leave shaking on a roller shaker at room temperature for up to an hour to dissolve. Methods • 1. Add 20 μL 1× working stock of Substrate (MCM2) in TBS to all wells of a clear, 384 well, Nickel-chelate microplate to give a final concentration of 250 ng/well. Incubate at room temperature for at least 1 hour. Plates can be pre-coated for 1 hour and stored at 4° C. for up to 8 days. • 2. Wash with TBS+0.05% Tween 20 (80 μL x 3). • 3. Add 2 μL 10× test compounds, including the positive control, in 40% DMSO/water to ‘test’ wells. Add 2 μL 40% DMSO/water to ‘control’ and ‘blank’ wells. The final DMSO concentration will be 4%. • 4. Add 13 μL CDCl7/ASK Kinase (1.5× stock) in Kinase Reaction Buffer to ‘test’ and ‘control’ wells to give a final concentration of […]. Add 13 μL Kinase Reaction Buffer to ‘blank’ wells. • 5. Add 5 μL ATP (4× stock) in Kinase Reaction Buffer to all wells to give a final concentration of 2 μM. • 6. Incubate at room temperature for 90 minutes. • 7. Wash with TBS+0.05% Tween 20 (80 μL x 3). • 8. Add 20 μL 1× working solution of Primary Antibody in TBS to all wells. Incubate at room temperature for 30 minutes. • 9. Wash with TBS+0.05% Tween 20 (80 μL x 3). • 10. Add 20 μL 1× working solution of Secondary Antibody in TBS to all wells. Incubate at room temperature for 30 minutes. • 11. Wash with TBS+0.05% Tween 20 (80 μL x 3). • 12. Add 20 μL 1× Development Reagent to all wells. • 13. Incubate at room temperature for 2 hours. Stop the reaction by adding 20 μL Stop Solution to all wells and record Absorbance on a Pherastar plate reader.
Percentage inhibition values were calculated from absorbance values, using the no compound (DMSO) and no enzyme control values as 0% and 100% inhibition, respectively. IC50 determination was performed with ExcelFit software (IDBS) using curve fit 205. Z′ factors were determined for each plate tested and were all above 0.5.

[3] = target: Cdc7/Dbf4 (Homo sapiens, UniProt O00311); test: Cdc7 biochemical assay Method 2: Cdc7/Dbf4 Enzyme TR-FRET Assay measuring pS40MCM2; details: pS40 MCM2 peptide, 1 μM ATP, 25° C., 120 minutes, read-out: Biochemical Method 2 (pIC50) (converted)
Chain of Cdc7/Dbf4 (O00311 whole entry): as the sequence (O00311 whole entry) above
Chain of Cdc7/Dbf4 (Q9UBU7 whole entry partner): as the sequence (Q9UBU7 whole entry partner) above
Experimental: This protocol describes a method for assaying a compounds' ability to inhibit Cdc7 activity by measuring pS40MCM2 levels in a Cdc7/Dbf4 Enzyme TR-FRET Assay.
2.5 nM Cdc7/Dbf4 was incubated with 100 nM of biotin-labelled peptide 35-TDALTS(pS)PGRDLP in the presence of 1 μM ATP at 25° C. for 120 minutes. The phosphorylation of the peptide was detected using TR-FRET. Anti-Mcm2 (pS40) antibody, Terbium anti-rabbit secondary antibody and Streptavidin-Alexa Fluor488 form the detection system.

[4] = target: T1, Cdc7; test: Cdc7 cell pharmacodynamics assay Method 1: pS53MCM2 levels in HCT116 cells; format: cell-based; design: endogenous in cells; details: 6 hours treatment, read-out: Biomarker Method 1 (pEC50) (converted)
From the text: This protocol describes a method to investigate the inhibition of Cdc7 activity of compounds by measuring pS53MCM2 levels in cells after treatment.
• HCT116 cells (wild type P53 positive) • McCoys 5A media (PAA Laboratories Ltd, E15-022) • 10% FCS (Sera Laboratories International Ltd, EU000F Batch: 108005) • 100× L-Glutamine (Invitrogen, 25030-024) • D-PBS without CaCl2 and MgCl2 (Invitrogen, ref. 14190-094) • Trypsin/EDTA (Invitrogen 25300-054) • 2% BSA in PBS • Cell Extraction Buffer (Invitrogen FNN0011) • Protease inhibitor cocktail (Sigma P-2714) • PMSF 0.3M stock in DMSO (Sigma P7626) • Antibody—rabbit pMCM2 Ser53 (Bethyl #A300-756A) • Antibody—goat MCM2 (Bethyl #A300-122A) • Antibody—goat Anti Rabbit IgG HRP (Perbio Science UK Ltd 31462) • 1×PBS • FACE Wash buffer (0.02% Triton X100 in 1×PBS) • SuperSignal ELISA Pico Chemiluminescent Substrate (Perbio Science UK Ltd 37070) Method • 72 hours prior to the start of the experiment plate 1×10^6 HCT116 cells in a 150 cm^2 flask in complete McCoys 5A media (+10% FCS+1× L-glutamine). • Plate 20,000 HCT116 cells per well in standard TC treated 96 well plate in 100 μL complete McCoys 5A media. • Allow cells to settle overnight in incubator set at 37° C. and 5% CO2. • Remove intermediate plate from fridge and place at 37° C. overnight to allow to equilibrate. • Cell treatment: cell assay plate 100 μL; daughter to cell transfer volume 3.33 μL; daughter volume 45 μL; mother plate to daughter volume 5 μL. • Once all cells are treated remove the cells to the incubator and incubate for 6 hours. • Dilute the capture antibody (total MCM2 #A300-122A) 1 in 250 in the required volume of PBS (5 mL per assay plate) and add 50 μL to each well of a Hybond plate excluding wells 12E to 12H. In these wells add 50 μL PBS. Seal the plate and incubate at room temperature fora minimum of 2 hours. • Defrost aliquot of Invitrogen Cell Extraction Buffer (FNN0011) on ice and supplement with appropriate volume of both Sigma protease inhibitor cocktail (P-2714) and PMSF (final cone 1 mM from a […] in DMSO). • After the 6 hour cell treatment time tap out the media from the assay plates and place them in the −70° C. freezer for at least 5 minutes. • Remove plates from freezer and add 20 μL of ice cold complete lysis buffer on ice. Incubate cells for 30 minutes at 4° C. • Add 80 μL per well 2% BSA. • Transfer 80 μL from the lysis plate to the same wells in the capture/ELISA plate. Cover with plate seal and incubate plates overnight at 4° C. • Wash plates with PBS, remove any residual remaining liquid and add 50 μL per well of pMCM2 Ser53 antibody (#A300-756A) diluted 1 in 100 in 2% BSA. Cover plate and incubate at room temperature for 2 hours with gentle shaking. • Wash plates with PBS, remove any residual remaining liquid and Incubate with 50 μL goat anti rabbit antibody (1 in 800 dilution in 2% BSA) for 1 hour at room temperature. • Wash plates with PBS, remove any residual remaining liquid and add 50 μL mixed SuperSignal Pico substrate. • Incubate each plate for 5 minutes at room temperature shielding the plates from direct light (with a cover plate). Read plates with the luminescent detection. Method 2

T1 sequence (O00311 whole entry): as the sequence (O00311 whole entry) above
T1 sequence (Q9UBU7 whole entry partner): as the sequence (Q9UBU7 whole entry partner) above

Row | EC50 [1] [µM] | IC50 [2] [µM] | IC50 [3] [µM] | EC50 [4] [µM] | SMILES
1 | 0.1 |  |  |  | CC1CNCCN1c1nc(-c2c[nH]c3ncccc23)[nH]c(=O)c1Cl (stereo in doubt) [Compound 55, 5-chloro-4-[(2R)-2-methylpiperazin-1-yl]-2-(1H-pyrrolo[2,3-b]pyridin-3-yl)-1H-pyrimidin-6-one 2,2,2-trifluoroacetic acid]
2 |  | 0.00275 | 0.00724 |  | Cc1[nH]ncc1-c1nc(C2CCOCC2)c(Cl)c(=O)[nH]1 [Compound 16, 5-chloro-2-(3-methyl-1H-pyrazol-4-yl)-4-tetrahydropyran-4-yl-1H-pyrimidin-6-one]
3 |  | 0.0214 | 0.00741 | 0.339 | Cc1ncsc1-c1nc(N2CCN[C@@H](C(C)C)C2)c(Cl)c(=O)[nH]1 [Compound 39, 5-chloro-4-[(3S)-3-isopropylpiperazin-1-yl]-2-(4-methylthiazol-5-yl)-1H-pyrimidin-6-one]
4 |  |  | 0.00589 |  | Cc1[nH]ncc1-c1nc(N2CCOCC2)c(Cl)c(=O)[nH]1 [Compound 51, 5-chloro-2-(5-methyl-1H-pyrazol-4-yl)-4-morpholino-1H-pyrimidin-6-one]
5 |  |  | 0.0724 |  | C[C@@H]1COCCN1c1nc(-c2cnn3ccccc23)[nH]c(=O)c1Cl [Compound 54, 5-chloro-4-[(3R)-3-methylmorpholin-4-yl]-2-pyrazolo[1,5-a]pyridin-3-yl-1H-pyrimidin-6-one]
